The source made the active and inactive calls. No rule for the calls is given here.
target: Ubiquitin-conjugating enzyme E2 N (Homo sapiens) (UniProt P61088); assay: UBE2N binders by NMR, biophysical, purified protein (AID 1552); conditions: NMR binding to purified UBE2N
Sequence (P61088 whole entry, looked up): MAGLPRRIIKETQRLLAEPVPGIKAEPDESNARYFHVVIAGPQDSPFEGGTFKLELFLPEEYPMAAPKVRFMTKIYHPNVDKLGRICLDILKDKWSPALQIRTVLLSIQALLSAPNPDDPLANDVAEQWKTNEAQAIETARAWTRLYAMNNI

SMILES	Kd
CNS(=O)(=O)c1cc(OC)ccc1OC	> 4 mM (inactive)
NC(=O)c1ccc(Cl)c(N2C(=O)CCC2=O)c1	> 4 mM (inactive)
Cc1nn2c3ccccc3nc2n(Cc2ccccc2)c1=O	> 4 mM (inactive)
COc1ccc2c(c1)OC/C(=C/c1ccc(OC)c(OC)c1)C2=O	> 4 mM (inactive)
Nc1csc(C(=O)O)c1	> 4 mM (inactive)
COc1cc(N)ncn1	> 4 mM (inactive)
OCc1c[nH]c2ccccc12	> 4 mM (inactive)
O=C1NC(=O)C(Cc2cccs2)C(=O)N1	> 4 mM (inactive)
COC1C(O)C(O[C@H]2CC[C@]3(C=O)C4C(CC[C@]3(O)C2)[C@@]2(O)CC[C@H](C3=CC(=O)OC3)[C@@]2(C)C[C@H]4OC(C)=O)OC(C)C1OC(C)=O (some centres undefined)	> 4 mM (inactive)
C=C[C@H]1CN2CC[C@H]1C[C@H]2[C@H](O)c1ccnc2ccccc12	> 4 mM (inactive)
O=C(Cc1ccc(F)cc1)Nc1ncccn1	> 4 mM (inactive)
OCC1COc2ccccc2O1 (centres undefined)	> 4 mM (inactive)
O=C(OC[C@H]1O[C@H](OC(=O)c2cc(O)c(O)c(OC(=O)c3cc(O)c(O)c(O)c3)c2)[C@H](OC(=O)c2cc(O)c(O)c(OC(=O)c3cc(O)c(O)c(O)c3)c2)[C@@H](OC(=O)c2cc(O)c(O)c(OC(=O)c3cc(O)c(O)c(O)c3)c2)[C@@H]1OC(=O)c1cc(O)c(O)c(OC(=O)c2cc(O)c(O)c(O)c2)c1)c1cc(O)c(O)c(OC(=O)c2cc(O)c(O)c(O)c2)c1	> 4 mM (inactive)
CC(C)(C)C(=O)Nc1nnc(SCC(N)=O)s1	> 4 mM (inactive)
CCN1CCC(NC2CCC(O)CC2)CC1 (centres undefined)	> 4 mM (inactive)
Cc1nc2ccccc2c(=O)n1-c1cccc(O)c1	> 4 mM (inactive)
O=c1ccn(Cc2ccccc2)c(=O)n1Cc1ccccc1	> 4 mM (inactive)
CN1CCC(NC(=O)c2c(F)cccc2Cl)CC1	> 4 mM (inactive)
N#Cc1cnn(Cc2ccc(Cl)cc2)c1N	> 4 mM (inactive)
COC(=O)c1cc(-c2c(C)nn(-c3ccccc3)c2C)n[nH]1	> 4 mM (inactive)
O=C(Oc1ccc2c(c1)OCC2=O)c1ccccc1	> 4 mM (inactive)
Cc1occc1C(=O)Nc1sccc1C(N)=O	> 4 mM (inactive)
CCCS(=O)(=O)N1CCN(c2ccccn2)CC1	> 4 mM (inactive)

SMILES	Kd
Cc1cc(=O)n2[nH]c(N)nc2n1	> 4 mM (inactive)
COc1cc2ccc(=O)oc2c2ccoc12	> 4 mM (inactive)
Cc1ccccc1-n1c(-c2ccncc2)n[nH]c1=S	> 4 mM (inactive)
NCc1nnnn1-c1ccccc1	> 4 mM (inactive)
COc1c(CC=C(C)C)c2c(c3oc(=O)c(-c4ccc(O)cc4)c(O)c13)C=CC(C)(C)O2	> 4 mM (inactive)
O=C(c1cc(-c2ccccc2)on1)N1CCCC1	> 4 mM (inactive)
Cn1nc(-c2cccs2)cc1N	> 4 mM (inactive)
CC1Cc2nc(SCC(N)=O)n(C)c(=O)c2S1 (centres undefined)	> 4 mM (inactive)
Nc1cc(=O)[nH]c(=O)n1Cc1ccco1	> 4 mM (inactive)
Cc1nc2c(=O)[nH]c3ccccc3c2o1	> 4 mM (inactive)
Cn1c(NCc2ccccc2O)nc2ccccc21	> 4 mM (inactive)
COc1ccc2c(c1)[nH]c1c(C)nccc12	> 4 mM (inactive)
Cc1c(F)cccc1NS(=O)(=O)c1ccccc1C#N	> 4 mM (inactive)
O=[N+]([O-])c1cccc(CN2CCC(O)CC2)c1	> 4 mM (inactive)
NC(=O)c1cccc2c1OCCO2	> 4 mM (inactive)
C[C@H]1[C@H](C)CC[C@]2(C(=O)O)CC[C@]3(C)C(=CCC4[C@@]5(C)C[C@@H](O)[C@H](O)[C@@](C)(CO)C5[C@H](O)C[C@]43C)[C@H]12 (some centres undefined)	> 4 mM (inactive)
Cn1ccc(C(=O)NC(=S)NN2CCOCC2)n1	> 4 mM (inactive)
Cc1nc(-c2ccc(C(=O)N3CCOCC3)cc2)cs1	> 4 mM (inactive)
O=C(/C=C1\SC(=O)NC1=O)NCc1ccccc1	> 4 mM (inactive)
COC(=O)c1cnccc1C(F)(F)F	> 4 mM (inactive)
CC1=CC2C(CC1=O)C(C)=CCC2C(C)C (centres undefined)	> 4 mM (inactive)
CCc1noc(C)c1C(=O)N1CCCC1	> 4 mM (inactive)
CC(O)c1ccc(C(C)O)cc1 (centres undefined)	> 4 mM (inactive)

SMILES	Kd
O=C(O)c1cc(=O)c2cccc(O)c2[nH]1	> 4 mM (inactive)
CNc1nc(C)nc(-n2nc(C)cc2C)n1	> 4 mM (inactive)
NCc1ccc(-c2csnn2)cc1	> 4 mM (inactive)
O=c1[nH]cc(NCc2ccccc2)c(=O)[nH]1	> 4 mM (inactive)
CC1CCC(N2CCN(c3ncccn3)CC2)CC1 (centres undefined)	> 4 mM (inactive)
CC(=O)O[C@@H]1CC2C(C)(CC[C@H](O)C2(C)C)C2CC[C@]3(C)C(=CC(=O)O[C@H]3c3ccoc3)C21C (some centres undefined)	> 4 mM (inactive)
Cn1c(=O)c2ccccc2n(Cc2ccccc2F)c1=O	> 4 mM (inactive)
CN(C)C(=S)Nc1ccc([N+](=O)[O-])cc1	> 4 mM (inactive)
CC(=O)NC(=S)Nc1nc2ccccc2n1C(C)=O	> 4 mM (inactive)
CC(Sc1ncn[nH]1)C(=O)O (centres undefined)	> 4 mM (inactive)
COCC(=O)Nc1c(C(N)=O)oc2ccccc12	> 4 mM (inactive)
CCOC(=O)c1cnc2cc(C)nn2c1C	> 4 mM (inactive)
NCC(O)c1ccc(O)cc1 (centres undefined)	> 4 mM (inactive)
Cn1cccc1C=C1C(=O)NC(=S)NC1=O	> 4 mM (inactive)
CC(C)c1nnc(N)s1	> 4 mM (inactive)
CCSc1nc2ccccc2[nH]1	> 4 mM (inactive)
COC(=O)C[C@H]1C2(C)CC34OC5(C)O[C@@]6([C@H](OC(C)=O)C(OC(C)=O)[C@]7(C)C(/C(=C(/O)C(C)C)C(=O)O[C@H]7c7ccoc7)[C@@]6(O5)[C@H](OC(C)=O)[C@@]3(O)C2OC(=O)C(C)C)[C@]14C (some centres undefined)	> 4 mM (inactive)
CC(C)(C)c1cc(CN)c(C(=O)O)o1	> 4 mM (inactive)
NC(=O)CSc1nnc2ccc(-c3ccco3)nn12	> 4 mM (inactive)
O=C(CC1SC(=O)NC1=O)Nc1ccccc1 (centres undefined)	> 4 mM (inactive)
CON(C)C(=O)Nc1ccc(Cl)cc1	> 4 mM (inactive)
CN(C)C(=O)c1ccc(-c2n[nH]c(=O)c3ccccc23)cc1	> 4 mM (inactive)
OCc1ccc2c(c1)OCCCO2	> 4 mM (inactive)

SMILES	Kd
CC1(C)CCC(C)(C)c2cc(C(=O)O)ccc21	> 4 mM (inactive)
O=C(O)c1csc(-c2cccnc2)n1	> 4 mM (inactive)
Cc1c(C)c2c(c(C)c1O)CCC(C)(CCCC(C)CCCC(C)CCCC(C)C)O2 (centres undefined)	> 4 mM (inactive)
NC(=O)C1CCN(Cc2ccccc2)CC1	> 4 mM (inactive)
CCOC(=O)c1c(C)nc2ncccn12	> 4 mM (inactive)
O=C(O)c1ccnn1-c1ccccc1	> 4 mM (inactive)
COc1cc2c(cc1OC)-c1cc3ccc(OC)c(OC)c3c[n+]1CC2	> 4 mM (inactive)
CCC(=O)Nc1ccccc1NC(C)=O	> 4 mM (inactive)
COc1ccccc1NC(=O)c1ccc(Br)o1	> 4 mM (inactive)
Cn1cnc2c(=S)[nH]c(=O)n(Cc3ccccc3)c21	> 4 mM (inactive)
O=C1c2ccccc2C(=O)c2c(O)c(O)cc(O)c21	> 4 mM (inactive)
COc1ccc2c(c1)O[C@H]1c3ccc(OC)cc3OC[C@@H]21	> 4 mM (inactive)
Cc1cc(Oc2ccccc2)nc(N)n1	> 4 mM (inactive)
CCC[C@H]1CC2=C(C[C@@H](CC)CC3=C1C(=O)OC3=O)C(=O)OC2=O	> 4 mM (inactive)
COC1C(O)C(O)C(O)[C@@H](O)C1O (some centres undefined)	> 4 mM (inactive)
CNC(=O)Nc1ccc(C(=O)NC)cc1	> 4 mM (inactive)
O=C1CCC(=O)N1c1cccnc1	> 4 mM (inactive)
O=C(Nc1ccccc1N1CCCC1)c1cccnc1	> 4 mM (inactive)
Oc1cnc2ccccc2c1CN1CCOCC1	> 4 mM (inactive)
Cn1c(NCc2ccco2)nc2ccccc21	> 4 mM (inactive)
Cn1c(SCC(N)=O)nnc1-c1cccnc1	> 4 mM (inactive)
COc1cc(OC)cc(-c2nc(N)n[nH]2)c1	> 4 mM (inactive)
CC(=O)Nc1ccc(NC(C)=O)c(C(F)(F)F)c1	> 4 mM (inactive)

SMILES	Kd
CC1(C)CC2C1CCC1(C)OC2(C)CCC1O (centres undefined)	> 4 mM (inactive)
Cc1ccccc1C(=O)Nn1cnnc1	> 4 mM (inactive)
CC(=O)c1c(C)nc2ccccc2c1N	> 4 mM (inactive)
CC(=O)Oc1ccc(O)cc1	> 4 mM (inactive)
O=C1c2ccc(F)cc2C(=O)N1CO	> 4 mM (inactive)
Cc1c(O)c(O)cc2c1CC=C1[C@@]2(C)CC[C@@]2(C)C3C[C@](C)(C(=O)O)CC[C@]3(C)CC[C@]12C (some centres undefined)	> 4 mM (inactive)
Fc1ccc(CN2CCCNCC2)cc1	> 4 mM (inactive)
COC(=O)c1c(OC)cc2c(c1C)Oc1c(Cl)c(OC(C)=O)c(Cl)c(C)c1C(=O)O2	> 4 mM (inactive)
CCCc1ncc(C(O)c2cccc3ccccc23)n1C (centres undefined)	> 4 mM (inactive)
NS(=O)(=O)c1ccc(NC(=O)c2ccccc2F)cc1	> 4 mM (inactive)
O=C1c2ccccc2C(=O)N1Cc1ccco1	> 4 mM (inactive)
CC(=O)NCc1nc2ccccc2[nH]1	> 4 mM (inactive)
CCOC(=O)C1CCC(=O)c2cccn21 (centres undefined)	> 4 mM (inactive)
O=C(Nc1ccon1)c1ccc(Cl)s1	> 4 mM (inactive)
O=c1c(-c2ccco2)[n+]([O-])c2ccccc2n1O	> 4 mM (inactive)
COc1ccc(-c2nnc(-c3ccc(N)cc3)o2)cc1	> 4 mM (inactive)
NC1=NCc2ccccc21	> 4 mM (inactive)
COc1ccc(-c2ccc(OC)cc2C(=O)O)cc1	> 4 mM (inactive)
NC1=NC(=O)CC(C(=O)Nc2ccccc2)S1 (centres undefined)	> 4 mM (inactive)
NC12CC3CC(C1)CC(O)(C3)C2	> 4 mM (inactive)
COc1ccc2[nH]cc(CCN(C)C)c2c1	> 4 mM (inactive)
CC(=O)O[C@@H]1CC2C(C)(C)[C@H](O)CC[C@]2(C)C2CC[C@@]3(C)[C@H](c4ccoc4)OC(=O)C4OC43[C@@]21C (some centres undefined)	> 4 mM (inactive)
